# Reference: US20110003805A1, “CONCOMITANT DRUG” (TAKEDA PHARMACEUTICAL COMPANY LIMITED, priority 2008, published 2011)
# System: TS (thymidine) gene expression in human breast cancer cell line BT-474
# Test: Measurement of expression amount of TS (thymidine) by addition of compound A, TaqMan
# Type: cell-based
# Conditions: BT-474 cells, 100 nmol/L, two days after addition, GAPDH as internal standard (FIG. 4)
# Description: Human breast cancer cell line BT-474 (ATCC (American Type Culture Collection) catalog No. HTB-20, Lasfargues EY, In Vitro 15:723-729(1979)), which is a passage cultured HER2 high expressing cell, was treated with trypsin and suspended in RPMI-1640 medium (GibcoInvitrogen) containing 10% bovine fetus serum (GibcoInvitrogen). The cell density of the cell suspension was measured by cell counter Sysmex CDA500, and the cell density was adjusted to 5×10^4 cell/mL using the aforementioned medium. The suspension was dispensed to each well of a 6 well multi-well culture plate (Corning) by 2 mL, and cultured overnight at 37° C. under 5% CO2. […] Using this cDNA as a template, the TS expression amount was measured using TaqMan Gene Expression Assays (Applied Biosystems). […] Ct method (Applied Biosystems) with GAPDH as an internal standard (FIG. 4).
structure (smiles),measurement,value
"CC(C)(O)CC(=O)NCCn1ccc2ncnc(Nc3ccc(Oc4cccc(C(F)(F)F)c4)c(Cl)c3)c21 [compound A, N-{2-[4-({3-chloro-4-[3-(trifluoromethyl)phenoxy]phenyl}amino)-5H-pyrrolo[3,2-d]pyrimidin-5-yl]ethyl}-3-hydroxy-3-methylbutaneamide]",TS expression amount,remarkably decreased
